Assays:
[1] = species on record: Mus musculus; assay: Effective dose measured for mouse ex vivo whole blood LTB-4 production; Range is from 3-10.; assay type: functional
[2] = target: T1, Leukotriene A-4 hydrolase (Homo sapiens, UniProt P09960); assay: Inhibition of human whole blood LTB-4 production (Leukotriene B-4).; assay type: functional
T1 sequence (P09960 whole entry): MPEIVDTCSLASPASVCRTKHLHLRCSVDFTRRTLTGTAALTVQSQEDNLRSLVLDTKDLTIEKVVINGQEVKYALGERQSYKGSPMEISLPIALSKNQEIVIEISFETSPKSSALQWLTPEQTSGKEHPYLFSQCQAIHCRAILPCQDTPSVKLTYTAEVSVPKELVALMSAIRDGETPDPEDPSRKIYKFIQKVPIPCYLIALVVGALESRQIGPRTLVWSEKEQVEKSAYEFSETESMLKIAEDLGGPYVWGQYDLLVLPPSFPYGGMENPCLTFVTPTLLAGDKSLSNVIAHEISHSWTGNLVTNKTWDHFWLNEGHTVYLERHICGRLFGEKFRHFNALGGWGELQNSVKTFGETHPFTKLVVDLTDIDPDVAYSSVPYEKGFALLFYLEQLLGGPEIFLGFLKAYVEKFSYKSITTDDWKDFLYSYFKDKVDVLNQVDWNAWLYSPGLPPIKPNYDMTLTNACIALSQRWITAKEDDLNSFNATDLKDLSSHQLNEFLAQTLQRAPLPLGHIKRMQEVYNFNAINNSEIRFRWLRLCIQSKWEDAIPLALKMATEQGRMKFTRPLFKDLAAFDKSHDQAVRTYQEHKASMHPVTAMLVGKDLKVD

[3] = target: T1, Leukotriene A-4 hydrolase; assay: Inhibition of human leukotriene A4 hydrolase (LTA-4).
[4] = system: Mus musculus; assay: Percentage inhibition of mouse ex vivo whole blood LTB-4 production (Leukotriene B-4) at a concentration of 10 mg/kg.; assay type: functional
[5] = species on record: Mus musculus; assay: Effective dose measured for mouse ex vivo whole blood LTB-4 production (Leukotriene B-4); assay type: functional
[6] = species on record: Mus musculus; assay: Effective dose measured for mouse ex vivo whole blood LTB-4 production; Range is from 1-3; assay type: functional
[7] = species on record: Mus musculus; assay: Effective dose measured for mouse ex vivo whole blood LTB-4 production; Range is from 1-3.; assay type: functional

Structure (SMILES)	IC50 [2] [nM]	IC50 [3] [nM]	ED90 [5] [mg/kg]	other results
CCOC(=O)CCN(C)CCCOc1ccc(Cc2ccccc2)cc1	110			ED90 [1]: 10 mg/kg
COC(=O)CCN(C)CCCOc1ccc(Cc2cccs2)cc1	95			ED90 [1]: 10 mg/kg
CCOC(=O)CNCCOc1ccc(Cc2ccccc2)cc1	> 30000	2500		
c1coc(-c2ccc(Oc3ccc(OCCN4CCCC4)cc3)cc2)n1				inhibition in vivo at 10 mg/kg [4]: 93%
CN(CCCOc1ccc(Oc2ccccc2)cc1)CCC(=O)O	230	19	3	
CCOC(=O)CCN(C)CCCCOc1ccc(Cc2ccccc2)cc1	520	> 10000		
CCOC(=O)CCNCCCOc1ccc(Cc2ccccc2)cc1	450	84		
CCOC(=O)CNCCCCCOc1ccc(Cc2ccccc2)cc1	420		10	
CN(CCCCOc1ccc(Cc2ccccc2)cc1)CC(=O)O	450	110		
CCOC(=O)CCCCNCCOc1ccc(Cc2ccccc2)cc1	2500	10700		
O=C(O)CNCCCCOc1ccc(Cc2ccccc2)cc1	230	1.3	≥ 10	
CN(CCCOc1ccc(Cc2ccccc2)cc1)CCC(N)=O	110	7		inhibition in vivo at 10 mg/kg [4]: 98%
CN(CCCOc1ccc(Cc2ccc(F)cc2)cc1)CCC(=O)O	190		≥ 10	
CN(CCCOc1ccc(Cc2ccccc2)cc1)CCn1cnnn1	560	1650		
CCOC(=O)CCCNCCOc1ccc(Cc2ccccc2)cc1	2500	3700		
c1ccc(-c2ccc(OCCN3CCCC3)cc2)cc1				inhibition in vivo at 10 mg/kg [4]: 9%
COC(=O)CCN(C)CCCOc1ccc(Cc2cccnc2)cc1				inhibition in vivo at 10 mg/kg [4]: 58%
O=C(O)CCNCCCOc1ccc(Cc2ccccc2)cc1	280		≥ 10	
COC(=O)CCNCCOc1ccc(Cc2ccccc2)cc1	590			

Structure (SMILES)	IC50 [2] [nM]	IC50 [3] [nM]	ED90 [5] [mg/kg]	other results
CCOC(=O)CN(C)CCCCOc1ccc(Cc2ccccc2)cc1	3300	6600		
CN(CCCOc1ccc(Oc2ccc(F)cc2)cc1)CCC(=O)O	210	160	3	
CN(CCCOc1ccc(Cc2cccs2)cc1)CCC(=O)O				ED90 [1]: 10 mg/kg
CN(CCCOc1ccc(Oc2ccc(-c3ccccc3)cc2)cc1)CCC(=O)O	190	< 0.5	10	
CN(CCCOc1ccc(Cc2ccccc2)cc1)CCC(=O)NS(C)(=O)=O	70		≤ 1	
CCOC(=O)CCNCCCCOc1ccc(Cc2ccccc2)cc1	76		3	
CN(CCCOc1ccc(Cc2ccccc2)cc1)CCC(=O)NS(=O)(=O)c1ccccc1	75		3	
CCOC(=O)CNCCCOc1ccc(Cc2ccccc2)cc1	1100			inhibition in vivo at 10 mg/kg [4]: 22%
CN(CCCOc1ccc(Cc2ccccc2)cc1)CCS(=O)(=O)O	5200	220		
O=C(O)CCNCCCCOc1ccc(Cc2ccccc2)cc1	490			inhibition in vivo at 10 mg/kg [4]: 70%
CN(CCCOc1ccc(Cc2ccsc2)cc1)CCC(=O)O				ED90 [1]: 10 mg/kg
COC(=O)CCCN(C)CCOc1ccc(Cc2ccccc2)cc1	460	450	≥ 10	
COC(=O)CCN(C)CCCOc1ccc(Cc2ccsc2)cc1	250	870		ED90 [6]: 3 mg/kg
CN(CCCOc1ccc(Oc2ccc(-c3nccs3)cc2)cc1)CCC(=O)O	72			inhibition in vivo at 10 mg/kg [4]: 87%
CCOC(=O)CNCCCCOc1ccc(Cc2ccccc2)cc1	350		≥ 10	
CN(CCCOc1ccc(Oc2ccc(-c3ncco3)cc2)cc1)CCC(=O)O	190		≥ 10	
CN(CCCOc1ccc(Cc2ccccc2)cc1)CCS(N)(=O)=O	740	4		inhibition in vivo at 10 mg/kg [4]: 84%
CN(CCCOc1ccc(Cc2ccccc2)cc1)CCC(=O)O.Cl				ED90 [7]: 3 mg/kg
